According to US11358960B2, “Pyrazol-3-ones that activate pro-apoptotic BAX” (Dana-Farber Cancer Institute, Inc., priority 2011, dated 2022):

Key:
[1] = tested on: DHL5 diffuse large B-cell lymphoma (DLBCL) cells; experiment: DHL5 cell viability assay (CellTiter-Glo); type: cell-based; conditions: for cell viability: single agent, 24 hours
[2] = tested on: BCL-XL-dependent leukemia cell line; experiment: Caspase 3/7 and cell death in BCL-XL-dependent leukemia cell line; type: cell-based
[3] = tested on: MCL-1 dependent leukemia cell line; experiment: Caspase 3/7 and cell death in isogenic MCL-1 dependent leukemia cell line; type: cell-based
[4] = molecular target: T1, recombinant full-length BAX (Homo sapiens, UniProt Q07812); experiment: Competitive fluorescence polarization assay: displacement of FITC-BIM SAHB from BAX; type: binding; conditions: positive control
T1 construct: Recombinant and tagless full-length BAX; made in house; host or cells: Escherichia coli BL21 (DE3)
T1 sequence (Q07812 whole entry): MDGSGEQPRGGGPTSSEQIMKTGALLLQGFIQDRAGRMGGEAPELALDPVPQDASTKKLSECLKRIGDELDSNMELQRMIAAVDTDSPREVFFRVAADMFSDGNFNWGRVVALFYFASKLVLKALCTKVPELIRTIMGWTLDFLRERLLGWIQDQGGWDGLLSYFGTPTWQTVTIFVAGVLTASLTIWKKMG
Method: BCL-2 family protein production. Recombinant and tagless full-length BAX, BCL-XLΔC, MCL-1ΔNΔC, and BFL-1/A1ΔC were expressed and purified as previously reported^17,35. Transformed Escherichia coli BL21 (DE3) were cultured in ampicillin-containing Luria Broth and protein expression was induced with 0.5 mM isopropyl β-D-1-thiogalactopyranoside (IPTG). The bacterial pellets were resuspended in buffer (250 mM NaCl, 20 mM Tris, complete protease inhibitor tablet, pH 7.2), sonicated, and after centrifugation at 45,000×g for 45 min, the supernatants were applied to glutathione-agarose columns (Sigma) for GST-BCL-XLΔC, MCL-1ΔNΔC, and BFL-1/A1ΔC, or a chitin column (BioLabs) for Intein-BAX. On-bead digestion of GST-tagged protein was accomplished by overnight incubation at room temperature in the presence of thrombin (75 units) in PBS (3 mL), whereas the intein tag was cleaved from BAX by overnight incubation of the chitin beads at 4° C. with 50 mM DTT. BCL-XLΔC, MCL-1ΔNΔC, and BFL-1/A1ΔC were purified by size exclusion chromatography (SEC) using 150 mM NaCl, 50 mM Tris, pH 7.4 buffer conditions, and full-length monomeric BAX protein isolated by SEC using a Superdex-75 column (GE Healthcare) and 20 mM Hepes pH 7.2, 150 mM KCl buffer conditions.
(§1) Fluorescence polarization binding assays. Fluorescence polarization assays (FPA) were performed as previously described^35,36.

BCL-XL = molecular target: T2, BCL-XL (Homo sapiens, UniProt Q07817); experiment: Competitive FPA with FITC-BIM SAHB and BCL-XL; type: binding
T2 construct: serial dilutions of full-length BAX, BCL-XLΔC, MCL-1ΔNΔC, or BFL-1/A1ΔC; GST (N, cleaved yes); made in house; host or cells: Escherichia coli BL21 (DE3)
T2 sequence (Q07817 1-212 limits assumed, species assumed): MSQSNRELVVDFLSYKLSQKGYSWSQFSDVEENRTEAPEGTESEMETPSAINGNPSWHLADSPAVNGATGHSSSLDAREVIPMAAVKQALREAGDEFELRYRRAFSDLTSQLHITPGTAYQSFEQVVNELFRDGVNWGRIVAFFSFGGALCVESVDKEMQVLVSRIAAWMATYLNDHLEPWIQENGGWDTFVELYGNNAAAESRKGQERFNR
Excerpt: (§2) The BH3 binding pocket of anti-apoptotic targets shares topographic similarities with the BH3 trigger site on BAX, including a hydrophobic groove that engages the hydrophobic face of BH3 helices and a perimeter of similarly oriented charged and polar residues that are complementary to discrete residues of the hydrophilic BH3 interface. The two BH3 binding sites differ in their geographic location, pocket depth, and functionality.
(§3) BCL-2 family protein production. Recombinant and tagless full-length BAX, BCL-XLΔC, MCL-1ΔNΔC, and BFL-1/A1ΔC were expressed and purified as previously reported^17,35. Transformed Escherichia coli BL21 (DE3) were cultured in ampicillin-containing Luria Broth and protein expression was induced with 0.5 mM isopropyl β-D-1-thiogalactopyranoside (IPTG). The bacterial pellets were resuspended in buffer (250 mM NaCl, 20 mM Tris, complete protease inhibitor tablet, pH 7.2), sonicated, and after centrifugation at 45,000×g for 45 min, the supernatants were applied to glutathione-agarose columns (Sigma) for GST-BCL-XLΔC, MCL-1ΔNΔC, and BFL-1/A1ΔC, or a chitin column (BioLabs) for Intein-BAX. […]
as §1

MCL-1 = molecular target: T3, MCL-1 (Homo sapiens, UniProt Q07820); experiment: Competitive FPA with FITC-BIM SAHB and MCL-1; type: binding
T3 construct: serial dilutions of full-length BAX, BCL-XLΔC, MCL-1ΔNΔC, or BFL-1/A1ΔC; GST (N, cleaved yes); made in house; host or cells: Escherichia coli BL21 (DE3)
T3 sequence (Q07820 170-327 limits assumed, species assumed): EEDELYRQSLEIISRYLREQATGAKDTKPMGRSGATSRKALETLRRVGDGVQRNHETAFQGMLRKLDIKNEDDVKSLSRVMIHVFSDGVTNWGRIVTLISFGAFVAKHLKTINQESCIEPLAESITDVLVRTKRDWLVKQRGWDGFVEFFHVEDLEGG
Excerpt: as §2, §3, §1

BFL-1/A1 = molecular target: T4, BFL-1/A1 (Homo sapiens, UniProt Q16548); experiment: Competitive FPA with FITC-BIM SAHB and BFL-1/A1; type: binding
T4 construct: serial dilutions of full-length BAX, BCL-XLΔC, MCL-1ΔNΔC, or BFL-1/A1ΔC; GST (N, cleaved yes); made in house; host or cells: Escherichia coli BL21 (DE3)
T4 sequence (Q16548 1-151 limits assumed): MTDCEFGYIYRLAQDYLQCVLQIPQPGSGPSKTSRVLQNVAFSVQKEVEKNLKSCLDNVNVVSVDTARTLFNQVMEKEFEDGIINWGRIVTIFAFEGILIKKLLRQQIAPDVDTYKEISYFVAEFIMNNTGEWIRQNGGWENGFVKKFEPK
Excerpt: as §2, §3, §1

Bak−/− MEFs [5] = experiment: Cell viability assay in Bak-/- MEFs (CellTiter-Glo); type: cell-based, mouse; conditions: Bak−/− MEFs (express only BAX), 24 hours
Bax−/−Bak−/− MEFs = experiment: Cell viability assay in Bax-/-Bak-/- MEFs (CellTiter-Glo); type: cell-based, mouse; conditions: 24 hours
Bak−/− MEFs [6] = experiment: Light microscopy (live cell imaging) of Bak-/- MEFs; type: cell-based, mouse; conditions: BAM7 15 μM, time lapse
Method: Light microscopy. MEFs (5,000 cells/well) were plated for 24 hours on glass bottom culture dishes (MatTek Corp., MA) and then incubated with BAM7 (15 μM) or vehicle (0.15% DMSO). Live cell imaging was performed using a TE2000-E2 Nikon microscopy equipped with a temperature and CO2-controlled chamber that maintained an atmosphere of 3-5% humidified CO2 at 37° C. A Hamamatsu Orca ER digital CCD camera was used to capture images at 20× magnification for 24 hours at 20 min intervals. Acquisition, hardware control, and image analysis was performed using Nikon NIS-Elements software.

leukemia cells = experiment: Leukemia cell viability (anti-leukemic activity); type: cell-based; conditions: FIGS. 15-17

For `CN(C)CC[C@H](CSc1ccccc1)Nc1ccc(S(=O)(=O)NC(=O)c2ccc(N3CCN(Cc4ccccc4-c4ccc(Cl)cc4)CC3)cc2)cc1[N+](=O)[O-]` [ABT-737, reference compound], the cell viability [1] was “relatively resistant”, the “effect of added ABT-737 on the response to BAM7” value ([1]; subcytotoxic dose of ABT-737 added to BAM7) was “further sensitized the cells to BAM7” and the cell death [2] was “induces cell death”. The cell death [3] was “significant resistance”.

With `CC[C@H](C)[C@H](NC(C)=O)C(=O)N[C@@H](Cc1c[nH]c2ccccc12)C(=O)N[C@H](C(=O)N[C@@H](C)C(=O)N[C@@H](CCC(N)=O)C(=O)N[C@@H](CCC(=O)O)C(=O)N[C@@H](CC(C)C)C(=O)N[C@@H](CCCNC(=N)N)C(=O)N[C@@]1(C)CCCC=CCCC[C@@](C)(C(=O)N[C@@H](Cc2ccccc2)C(=O)N[C@@H](CC(N)=O)C(=O)N[C@@H](C)C(=O)N[C@@H](Cc2ccc(O)cc2)C(=O)N[C@@H](Cc2ccc(O)cc2)C(=O)N[C@@H](C)C(=O)N[C@@H](CCCNC(=N)N)C(=O)N[C@@H](CCCNC(=N)N)C(N)=O)NC(=O)[C@H](CC(=O)O)NC(=O)CNC(=O)[C@H]([C@@H](C)CC)NC1=O)[C@@H](C)CC` [Ac-BIM SAHB, reference compound] the IC50 [4] was 314 nM, the IC50 (BCL-XL; competitive FPA, read-out: IC50, competition with FITC-BIM SAHB for binding to BCL-XL) was 572 nM and the IC50 (MCL-1; competitive FPA, read-out: IC50, competition with FITC-BIM SAHB for binding to MCL-1) was 136 nM. For the same compound, the IC50 (BFL-1/A1; competitive FPA, read-out: IC50, competition with FITC-BIM SAHB for binding to BFL-1/A1) was 603 nM.

`CCOc1ccccc1NN=C1C(=O)N(c2nc(-c3ccccc3)cs2)N=C1C` [BAM7, 4-(2-(2-ethoxyphenyl)hydrazono)-3-methyl-1-(4-phenylthiazol-2-yl)-1H-pyrazol-5(4H)-one] was tested, and the “competition with FITC-BIM SAHB for BCL-XL (in words)” value (BCL-XL; up to 50 μM dosing) was “little to no anti-apoptotic binding interactions”, the “competition with FITC-BIM SAHB for MCL-1 (in words)” value (MCL-1; up to 50 μM dosing) was “little to no anti-apoptotic binding interactions” and the “competition with FITC-BIM SAHB for BFL-1/A1 (in words)” value (BFL-1/A1; up to 50 μM dosing) was “little to no anti-apoptotic binding interactions”. For the same compound, the cell viability (Bak−/− MEFs [5]) was “dose-responsively impaired the viability”, the cell viability (Bax−/−Bak−/− MEFs) was “did not affect the viability” and the “morphologic features of apoptosis” value (Bak−/− MEFs [6]) was “characteristic microscopic features of apoptosis”. For the same compound, the “effect of BAM7 on the response to ABT-737” value ([1]; BAM7 10 μM plus ABT-737) was “sensitized DHL5 cells to ABT-737”, the cell viability [1] was “dose-responsive impairment of cell viability” and the anti-leukemic activity (leukemia cells) was “anti-leukemic activity”.
